The target of one test is T1, Human PD-L1/PD-1 (Homo sapiens, UniProt Q9NZQ7).
T1 construct: made in house; host or cells: HEK293T
As to the kind of experiment: HTRF PD-1-Ig/PD-L1-His binding assay (human PD-L1). The following applies: cluster symbol; read-out: HTRF IC50 cluster. In a few lines:
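Soluble PD-1-Ig binding to PD-L1-His measured by HTRF in dPBS with 0.1% BSA and 0.05% Tween-20. Detection used europium cryptate anti-Ig antibody (1 nM final) and APC anti-His antibody (20 nM final) added on top of the binding reaction.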

Test [1] has as its target T2, LK35.2-hPD-L1 cells / PE-labeled PD-1-Ig (Homo sapiens, UniProt Q9NZQ7).
T2 construct: expressed in transfected cells; host or cells: LK35.2 mouse B cell line
In words: LK35.2-hPD-L1 cell binding high-content screening assay. Type of test: cell-based. Particulars: cell binding assay, cell line not given; cluster symbol; read-out: CBA IC50 cluster. The gist of the method:
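Mouse LK35.2 B cells stably over-expressing human PD-L1, cultured overnight, treated with compound plus PE-labeled human PD-1-Ig (1 nM final) in RPMI/10% FCS for 1 h at 37 °C. After washing, bound fluorescence quantified by high-content imaging.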

Structures are written as SMILES. Positions of bridges follow the written chain, without caps; N, C: chain ends. Non-standard residues stand in square brackets, D forms with d. Residues, ends and D or L forms follow the SMILES beside them. Ala(cPr) = N[C@@H](CC1CC1)C(=O)O; Hyp = O=C(O)[C@@H]1C[C@@H](O)CN1; tBuAla = CC(C)(C)C[C@H](N)C(=O)O; Cha = N[C@@H](CC1CCCCC1)C(=O)O; NMeNle = CCCC[C@H](NC)C(=O)O; NMeA = CN[C@@H](C)C(=O)O; Dab = NCC[C@H](N)C(=O)O; Abu = CC[C@H](N)C(=O)O; Dap = NC[C@H](N)C(=O)O; Sar = CNCC(=O)O

T1 sequence (Q9NZQ7 with tags, fused parts or gaps): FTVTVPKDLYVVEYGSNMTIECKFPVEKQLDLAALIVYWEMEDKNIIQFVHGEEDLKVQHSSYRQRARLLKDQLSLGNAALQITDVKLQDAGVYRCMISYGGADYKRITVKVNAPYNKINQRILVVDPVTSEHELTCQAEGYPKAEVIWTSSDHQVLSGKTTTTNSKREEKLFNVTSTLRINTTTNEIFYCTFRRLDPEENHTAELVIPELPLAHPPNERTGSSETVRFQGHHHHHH
T2 sequence (Q9NZQ7 19-290): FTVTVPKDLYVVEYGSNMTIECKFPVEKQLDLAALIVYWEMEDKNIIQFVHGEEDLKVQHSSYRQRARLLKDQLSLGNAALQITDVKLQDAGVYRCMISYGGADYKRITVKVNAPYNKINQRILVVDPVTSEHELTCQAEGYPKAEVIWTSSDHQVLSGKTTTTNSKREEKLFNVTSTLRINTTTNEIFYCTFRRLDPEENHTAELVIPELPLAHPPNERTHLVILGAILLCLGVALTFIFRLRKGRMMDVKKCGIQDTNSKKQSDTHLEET

For `CCCC[C@H]1C(=O)N(C)[C@@H](CCCC)C(=O)N[C@@H](CC(C)C)C(=O)N[C@H](C(=O)NCC(N)=O)CSCC(=O)N[C@@H](Cc2ccc(O)cc2)C(=O)N(C)[C@@H](C)C(=O)N[C@@H](CC(N)=O)C(=O)N2CCC[C@H]2C(=O)N[C@@H](CO)C(=O)N[C@@H](CCC(=O)O)C(=O)N2C[C@H](O)C[C@H]2C(=O)N[C@@H](Cc2c[nH]c3ccccc23)C(=O)N[C@@H](CCN)C(=O)N[C@@H](Cc2c[nH]c3ccccc23)C(=O)N1C` [Example 5074] ({CH2CO}-Y[NMeA]NPSE[Hyp]W[Dab]W[NMeNle][NMeNle]LCG-NH2; thioether N-14), the IC50 on Human PD-L1/PD-1 was 0.385 to 6.74 nM; in test [1], 0.158 to 4.71 nM.
On the same counts, the results for `CCCC[C@H]1C(=O)N(C)[C@@H](CCCC)C(=O)N[C@@H](CC(C)C)C(=O)N[C@H](C(=O)NCC(N)=O)CSCC(=O)N[C@@H](Cc2ccc(O)cc2)C(=O)N(C)[C@@H](C)C(=O)N[C@@H](CC(N)=O)C(=O)N2CCC[C@H]2C(=O)N[C@@H](Cc2c[nH]cn2)C(=O)N[C@@H](CCC(N)=O)C(=O)N2C[C@H](O)C[C@H]2C(=O)N[C@@H](Cc2c[nH]c3ccccc23)C(=O)N[C@@H](CO)C(=O)N[C@@H](Cc2c[nH]c3ccccc23)C(=O)N1C` [Example 5075] ({CH2CO}-Y[NMeA]NPHQ[Hyp]WSW[NMeNle][NMeNle]LCG-NH2; thioether N-14) are 0.385 to 6.74 nM and 0.158 to 4.71 nM.
Take `CCCC[C@H]1C(=O)N(C)[C@@H](CCCC)C(=O)N[C@@H](CC(C)(C)C)C(=O)N[C@H](C(=O)NCC(N)=O)CSCC(=O)N[C@@H](Cc2ccc(O)cc2)C(=O)N(C)[C@@H](C)C(=O)N[C@@H](CC(N)=O)C(=O)N2CCC[C@H]2C(=O)N[C@@H](Cc2c[nH]cn2)C(=O)N[C@@H](CCC(N)=O)C(=O)N2C[C@H](O)C[C@H]2C(=O)N[C@@H](Cc2c[nH]c3ccccc23)C(=O)N[C@@H](CO)C(=O)N[C@@H](Cc2c[nH]c3ccccc23)C(=O)N1C` [Example 5076] ({CH2CO}-Y[NMeA]NPHQ[Hyp]WSW[NMeNle][NMeNle][tBuAla]CG-NH2; thioether N-14): the IC50 at Human PD-L1/PD-1 was 6.76 to 30.3 nM; in test [1] it was 4.78 to 72.9 nM.
For `CCCC[C@H]1C(=O)N(C)[C@@H](CCCC)C(=O)N[C@@H](CC2CCCCC2)C(=O)N[C@H](C(=O)NCC(N)=O)CSCC(=O)N[C@@H](Cc2ccc(O)cc2)C(=O)N(C)[C@@H](C)C(=O)N[C@@H](CC(N)=O)C(=O)N2CCC[C@H]2C(=O)N[C@@H](Cc2c[nH]cn2)C(=O)N[C@@H](CCC(N)=O)C(=O)N2C[C@H](O)C[C@H]2C(=O)N[C@@H](Cc2c[nH]c3ccccc23)C(=O)N[C@@H](CO)C(=O)N[C@@H](Cc2c[nH]c3ccccc23)C(=O)N1C` [Example 5077] ({CH2CO}-Y[NMeA]NPHQ[Hyp]WSW[NMeNle][NMeNle][Cha]CG-NH2; thioether N-14) the same measures were 6.76 to 30.3 nM and 0.158 to 4.71 nM.
For `CCCC[C@H]1C(=O)N(C)[C@@H](CCCC)C(=O)N[C@@H](CC)C(=O)N[C@H](C(=O)NCC(N)=O)CSCC(=O)N[C@@H](Cc2ccc(O)cc2)C(=O)N(C)[C@@H](C)C(=O)N[C@@H](CC(N)=O)C(=O)N2CCC[C@H]2C(=O)N[C@@H](Cc2c[nH]cn2)C(=O)N[C@@H](CCC(N)=O)C(=O)N2C[C@H](O)C[C@H]2C(=O)N[C@@H](Cc2c[nH]c3ccccc23)C(=O)N[C@@H](CO)C(=O)N[C@@H](Cc2c[nH]c3ccccc23)C(=O)N1C` [Example 5078] ({CH2CO}-Y[NMeA]NPHQ[Hyp]WSW[NMeNle][NMeNle][Abu]CG-NH2; thioether N-14) the same measures were 0.385 to 6.74 nM and 0.158 to 4.71 nM.
Turning to `CCCC[C@H]1C(=O)N(C)[C@@H](CCCC)C(=O)N[C@@H](CC(C)C)C(=O)N[C@H](C(=O)NCC(N)=O)CSCC(=O)N[C@@H](Cc2ccc(O)cc2)C(=O)N(C)[C@@H](C)C(=O)N[C@@H](CC(N)=O)C(=O)N2CCC[C@H]2C(=O)N[C@@H](Cc2c[nH]cn2)C(=O)N[C@@H](CCC(N)=O)C(=O)N2CCC[C@H]2C(=O)N[C@@H](Cc2c[nH]c3ccccc23)C(=O)N[C@@H](CO)C(=O)N[C@@H](Cc2c[nH]c3ccccc23)C(=O)N1C` [Example 5079] ({CH2CO}-Y[NMeA]NPHQPWSW[NMeNle][NMeNle]LCG-NH2; thioether N-14), the half-inhibitory concentration (IC50) at Human PD-L1/PD-1 is 0.385 to 6.74 nM; in test [1], 4.78 to 72.9 nM.
`CCCC[C@H]1C(=O)N(C)[C@@H](CCCC)C(=O)N[C@@H](CC2CC2)C(=O)N[C@H](C(=O)NCC(N)=O)CSCC(=O)N[C@@H](Cc2ccc(O)cc2)C(=O)N(C)[C@@H](C)C(=O)N[C@@H](CC(N)=O)C(=O)N2CCC[C@H]2C(=O)N[C@@H](Cc2c[nH]cn2)C(=O)N[C@@H](CCC(N)=O)C(=O)N2C[C@H](O)C[C@H]2C(=O)N[C@@H](Cc2c[nH]c3ccccc23)C(=O)N[C@@H](CO)C(=O)N[C@@H](Cc2c[nH]c3ccccc23)C(=O)N1C` [Example 5081] ({CH2CO}-Y[NMeA]NPHQ[Hyp]WSW[NMeNle][NMeNle][Ala(cPr)]CG-NH2; thioether N-14): the half-inhibitory concentration (IC50) at Human PD-L1/PD-1 lay within 0.385 to 6.74 nM; in test [1], 4.78 to 72.9 nM.
With `CCCC[C@H]1C(=O)N(C)[C@@H](CCCC)C(=O)N[C@@H](CC(C)C)C(=O)N[C@H](C(=O)NCC(N)=O)CSCC(=O)N[C@@H](Cc2ccc(O)cc2)C(=O)N(C)[C@@H](C)C(=O)N[C@@H](CC(N)=O)C(=O)N2CCC[C@H]2C(=O)N[C@@H](CN)C(=O)N[C@@H](CC2CCCCC2)C(=O)N2C[C@H](O)C[C@H]2C(=O)N[C@@H](Cc2c[nH]c3ccccc23)C(=O)N[C@@H](CO)C(=O)N[C@@H](Cc2c[nH]c3ccccc23)C(=O)N1C` [Example 5082] ({CH2CO}-Y[NMeA]NP[Dap][Cha][Hyp]WSW[NMeNle][NMeNle]LCG-NH2; thioether N-14), the IC50 on Human PD-L1/PD-1 lay in the range of 0.385 to 6.74 nM; in test [1], 0.158 to 4.71 nM.
For `CCCC[C@H]1C(=O)N(C)[C@@H](CCCC)C(=O)N[C@@H](CC(C)C)C(=O)N[C@H](C(=O)NCC(N)=O)CSCC(=O)N[C@@H](Cc2ccc(O)cc2)C(=O)N(C)[C@@H](C)C(=O)N[C@@H](CC(N)=O)C(=O)N2CCC[C@H]2C(=O)N[C@@H](CN)C(=O)N[C@@H](CC(C)(C)C)C(=O)N2C[C@H](O)C[C@H]2C(=O)N[C@@H](Cc2c[nH]c3ccccc23)C(=O)N[C@@H](CO)C(=O)N[C@@H](Cc2c[nH]c3ccccc23)C(=O)N1C` [Example 5083] ({CH2CO}-Y[NMeA]NP[Dap][tBuAla][Hyp]WSW[NMeNle][NMeNle]LCG-NH2; thioether N-14), the results for the 50% inhibitory concentration (IC50) (on Human PD-L1/PD-1; in test [1]) were 0.385 to 6.74 nM and 0.158 to 4.71 nM, respectively.
On the same counts, the results for `CCCC[C@H]1C(=O)N(C)[C@@H](CCCC)C(=O)N[C@@H](CC(C)C)C(=O)N[C@H](C(=O)NCC(N)=O)CSCC(=O)N[C@@H](Cc2ccc(O)cc2)C(=O)N(C)[C@@H](C)C(=O)N[C@@H](CC(N)=O)C(=O)N(C)CC(=O)N[C@@H](Cc2c[nH]cn2)C(=O)N[C@@H](CCC(N)=O)C(=O)N2C[C@H](O)C[C@H]2C(=O)N[C@@H](Cc2c[nH]c3ccccc23)C(=O)N[C@@H](CO)C(=O)N[C@@H](Cc2c[nH]c3ccccc23)C(=O)N1C` [Example 5084] ({CH2CO}-Y[NMeA]N[Sar]HQ[Hyp]WSW[NMeNle][NMeNle]LCG-NH2; thioether N-14) are 6.76 to 30.3 nM and 4.78 to 72.9 nM.
On the same counts, the results for `CCCC[C@H]1C(=O)N(C)[C@@H](CCCC)C(=O)N[C@@H](CCC(=O)O)C(=O)N[C@H](C(=O)NCC(N)=O)CSCC(=O)N[C@@H](Cc2ccc(O)cc2)C(=O)N(C)[C@@H](C)C(=O)N[C@@H](CCN)C(=O)N2CCC[C@H]2C(=O)N[C@@H](CO)C(=O)N[C@@H](CCC(=O)O)C(=O)N2C[C@H](O)C[C@H]2C(=O)N[C@@H](Cc2c[nH]c3ccccc23)C(=O)N[C@@H](CCCCN)C(=O)N[C@@H](Cc2c[nH]c3ccccc23)C(=O)N1C` [Example 5085] ({CH2CO}-Y[NMeA][Dab]PSE[Hyp]WKW[NMeNle][NMeNle]ECG-NH2; thioether N-14) are 0.385 to 6.74 nM and 0.158 to 4.71 nM.
For `CCCC[C@H]1C(=O)N(C)[C@@H](CCCC)C(=O)N[C@@H](CCCNC(=N)N)C(=O)N[C@H](C(=O)NCC(N)=O)CSCC(=O)N[C@@H](Cc2ccc(O)cc2)C(=O)N(C)[C@@H](C)C(=O)N[C@@H](CCN)C(=O)N2CCC[C@H]2C(=O)N[C@@H](Cc2c[nH]cn2)C(=O)N[C@@H](CCC(=O)O)C(=O)N2C[C@H](O)C[C@H]2C(=O)N[C@@H](Cc2c[nH]c3ccccc23)C(=O)N[C@@H](CCN)C(=O)N[C@@H](Cc2c[nH]c3ccccc23)C(=O)N1C` [Example 5086] ({CH2CO}-Y[NMeA][Dab]PHE[Hyp]W[Dab]W[NMeNle][NMeNle]RCG-NH2; thioether N-14) the same measures were 0.385 to 6.74 nM and 4.78 to 72.9 nM.
On to `CCCC[C@H]1C(=O)N(C)[C@@H](CCCC)C(=O)N[C@@H](C)C(=O)N[C@H](C(=O)NCC(N)=O)CSCC(=O)N[C@@H](Cc2ccc(O)cc2)C(=O)N(C)[C@@H](C)C(=O)N[C@@H](CCN)C(=O)N2CCC[C@H]2C(=O)N[C@@H](Cc2c[nH]cn2)C(=O)N[C@@H](CCC(=O)O)C(=O)N2C[C@H](O)C[C@H]2C(=O)N[C@@H](Cc2c[nH]c3ccccc23)C(=O)N[C@@H](CO)C(=O)N[C@@H](Cc2c[nH]c3ccccc23)C(=O)N1C` [Example 5087] ({CH2CO}-Y[NMeA][Dab]PHE[Hyp]WSW[NMeNle][NMeNle]ACG-NH2; thioether N-14), for which the half-inhibitory concentration (IC50) lay within 0.385 to 6.74 nM on Human PD-L1/PD-1 and 4.78 to 72.9 nM in test [1].
With `CCCC[C@H]1C(=O)N(C)[C@@H](CCCC)C(=O)N[C@@H](CCC(=O)O)C(=O)N[C@H](C(=O)NCC(N)=O)CSCC(=O)N[C@@H](Cc2ccc(O)cc2)C(=O)N(C)[C@@H](C)C(=O)N[C@@H](CC(=O)O)C(=O)N2CCC[C@H]2C(=O)N[C@@H](Cc2c[nH]cn2)C(=O)N[C@@H](CCC(N)=O)C(=O)N2C[C@H](O)C[C@H]2C(=O)N[C@@H](Cc2c[nH]c3ccccc23)C(=O)N[C@@H](CO)C(=O)N[C@@H](Cc2c[nH]c3ccccc23)C(=O)N1C` [Example 5088] ({CH2CO}-Y[NMeA]DPHQ[Hyp]WSW[NMeNle][NMeNle]ECG-NH2; thioether N-14), the IC50 at Human PD-L1/PD-1 was in the range of 0.385 to 6.74 nM; in test [1] it was 4.78 to 72.9 nM.

As usually defined, the IC50 is the concentration that inhibits the measured activity by half.
